This note sets out measurements from US20240398784A1, “C-LINKED ISOQUINOLINE AMIDES AS LRRK2 INHIBITORS, PHARMACEUTICAL COMPOSITIONS, AND USES THEREOF” (Merck Sharp & Dohme LLC, priority 2021, published 2024).

Sequence of LRRK2 G2019S (Q5S007 whole entry G2019S): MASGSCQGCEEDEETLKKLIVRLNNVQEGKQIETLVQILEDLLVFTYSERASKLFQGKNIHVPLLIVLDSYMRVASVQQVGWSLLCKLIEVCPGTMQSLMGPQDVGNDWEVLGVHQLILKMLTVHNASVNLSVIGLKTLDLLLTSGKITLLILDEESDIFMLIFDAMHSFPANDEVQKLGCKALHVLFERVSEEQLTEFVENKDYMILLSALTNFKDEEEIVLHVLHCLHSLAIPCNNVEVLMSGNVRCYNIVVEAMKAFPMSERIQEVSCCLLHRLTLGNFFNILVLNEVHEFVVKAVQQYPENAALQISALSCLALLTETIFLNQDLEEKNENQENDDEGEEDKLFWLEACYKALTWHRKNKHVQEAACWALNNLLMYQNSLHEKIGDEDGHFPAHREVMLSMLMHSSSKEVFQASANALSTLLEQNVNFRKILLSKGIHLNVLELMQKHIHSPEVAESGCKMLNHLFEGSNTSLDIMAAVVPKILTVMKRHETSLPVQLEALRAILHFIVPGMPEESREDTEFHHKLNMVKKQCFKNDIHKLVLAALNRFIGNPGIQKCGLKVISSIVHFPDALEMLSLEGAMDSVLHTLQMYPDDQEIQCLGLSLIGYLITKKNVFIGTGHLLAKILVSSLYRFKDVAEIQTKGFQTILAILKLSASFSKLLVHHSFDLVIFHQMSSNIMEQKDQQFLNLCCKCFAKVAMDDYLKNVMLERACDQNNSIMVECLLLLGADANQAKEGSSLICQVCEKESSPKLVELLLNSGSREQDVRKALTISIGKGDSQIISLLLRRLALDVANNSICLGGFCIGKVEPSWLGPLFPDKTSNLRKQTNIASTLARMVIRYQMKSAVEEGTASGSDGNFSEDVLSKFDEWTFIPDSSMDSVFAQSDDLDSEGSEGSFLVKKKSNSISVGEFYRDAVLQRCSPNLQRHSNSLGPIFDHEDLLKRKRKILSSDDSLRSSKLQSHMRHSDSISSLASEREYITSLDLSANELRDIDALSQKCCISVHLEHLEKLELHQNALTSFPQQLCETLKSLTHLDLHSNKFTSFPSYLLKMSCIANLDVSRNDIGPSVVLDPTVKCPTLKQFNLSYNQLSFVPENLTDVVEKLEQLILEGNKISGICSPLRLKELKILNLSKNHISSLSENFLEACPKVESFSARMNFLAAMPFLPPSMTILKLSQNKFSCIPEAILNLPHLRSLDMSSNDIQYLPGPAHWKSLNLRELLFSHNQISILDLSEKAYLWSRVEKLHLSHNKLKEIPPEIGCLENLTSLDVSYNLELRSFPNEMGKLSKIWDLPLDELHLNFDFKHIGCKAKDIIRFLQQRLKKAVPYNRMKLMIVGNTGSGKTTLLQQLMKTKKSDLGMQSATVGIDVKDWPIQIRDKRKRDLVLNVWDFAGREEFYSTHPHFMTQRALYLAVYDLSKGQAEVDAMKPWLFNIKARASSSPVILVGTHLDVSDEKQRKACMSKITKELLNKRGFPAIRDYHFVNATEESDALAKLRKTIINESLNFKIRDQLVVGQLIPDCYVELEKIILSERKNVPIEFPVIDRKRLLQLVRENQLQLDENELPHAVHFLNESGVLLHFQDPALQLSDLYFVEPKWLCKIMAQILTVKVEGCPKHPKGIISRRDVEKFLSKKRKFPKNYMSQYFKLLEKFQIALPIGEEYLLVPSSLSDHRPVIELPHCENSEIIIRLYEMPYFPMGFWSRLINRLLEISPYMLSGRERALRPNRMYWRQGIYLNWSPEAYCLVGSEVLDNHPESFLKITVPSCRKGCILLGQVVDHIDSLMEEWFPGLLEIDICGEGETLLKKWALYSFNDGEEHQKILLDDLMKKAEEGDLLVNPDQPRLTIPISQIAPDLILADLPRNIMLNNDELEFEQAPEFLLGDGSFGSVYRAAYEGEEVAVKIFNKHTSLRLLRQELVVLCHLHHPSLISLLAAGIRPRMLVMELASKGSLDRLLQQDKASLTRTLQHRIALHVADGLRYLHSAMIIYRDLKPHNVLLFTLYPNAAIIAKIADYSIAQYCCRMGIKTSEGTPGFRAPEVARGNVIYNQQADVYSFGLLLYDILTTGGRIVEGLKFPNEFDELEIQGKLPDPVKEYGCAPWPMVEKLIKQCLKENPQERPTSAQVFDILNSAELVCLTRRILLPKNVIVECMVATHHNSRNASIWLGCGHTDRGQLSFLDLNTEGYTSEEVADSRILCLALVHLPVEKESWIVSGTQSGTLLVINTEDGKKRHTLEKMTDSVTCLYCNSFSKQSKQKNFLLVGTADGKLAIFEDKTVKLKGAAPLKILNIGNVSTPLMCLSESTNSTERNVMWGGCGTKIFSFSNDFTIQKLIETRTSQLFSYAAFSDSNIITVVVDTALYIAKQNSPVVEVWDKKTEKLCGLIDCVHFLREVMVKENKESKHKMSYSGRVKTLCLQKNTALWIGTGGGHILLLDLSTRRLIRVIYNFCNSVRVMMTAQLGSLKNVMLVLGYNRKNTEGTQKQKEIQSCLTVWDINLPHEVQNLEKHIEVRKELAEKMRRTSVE

The experiment concerns the target LRRK2 G2019S (Homo sapiens, UniProt Q5S007, G2019S). The experiment in a line: LRRK2 G2019S Km ATP LanthaScreen assay. Type of experiment: biochemical. The settings on record: read-out: LRRK2 pIC50 (converted).
Regarding `CC(C)Cn1nccc1C1CC1C(=O)Nc1cc2cc(C3CCN(C4(C)COCC4O)CC3)c(Cl)cc2cn1` (single isomer, unassigned) [Ex-4.62, N-(7-chloro-6-(1-(4-hydroxy-3-methyltetrahydrofuran-3-yl)piperidin-4-yl)isoquinolin-3-yl)-2-(1-isobutyl-1H-pyrazol-5-yl)cyclopropane-1-carboxamide], the IC50 was 81300 µM.
The same measure for `CC(C)n1nccc1C1CC1C(=O)Nc1cc2cc(C3CCN(C4(C)COCC4O)CC3)c(Cl)cc2cn1` (single isomer, unassigned) [Ex-4.63, N-(7-chloro-6-(1-(4-hydroxy-3-methyltetrahydrofuran-3-yl)piperidin-4-yl)isoquinolin-3-yl)-2-(1-isopropyl-1H-pyrazol-5-yl)cyclopropane-1-carboxamide]: 0.0224 µM; for `CC(C)n1nccc1C1CC1C(=O)Nc1cc2cc(C3CCN(C4(C)COCC4O)CC3)c(Cl)cc2cn1` (single isomer, unassigned) [Ex-4.64, N-(7-chloro-6-(1-(4-hydroxy-3-methyltetrahydrofuran-3-yl)piperidin-4-yl)isoquinolin-3-yl)-2-(1-isopropyl-1H-pyrazol-5-yl)cyclopropane-1-carboxamide]: 0.00245 µM; for `CC1(N2CCC(c3cc4cc(NC(=O)C5CC5c5ccco5)ncc4cc3Cl)CC2)COCC1O` (single isomer, unassigned) [Ex-4.65, N-(7-chloro-6-(1-(4-hydroxy-3-methyltetrahydrofuran-3-yl)piperidin-4-yl)isoquinolin-3-yl)-2-(furan-2-yl)cyclopropane-1-carboxamide]: 0.000708 µM.
As for `CC1(N2CCC(c3cc4cc(NC(=O)C5CC5c5ccco5)ncc4cc3Cl)CC2)COCC1O` (single isomer, unassigned) [Ex-4.66, N-(7-chloro-6-(1-(4-hydroxy-3-methyltetrahydrofuran-3-yl)piperidin-4-yl)isoquinolin-3-yl)-2-(furan-2-yl)cyclopropane-1-carboxamide], the figure is 8.13e-05 µM; as for `CC1(N2CCC(c3cc4cc(NC(=O)C5CC5C5CCOCC5)ncc4cc3Cl)CC2)COCC1O` (single isomer, unassigned) [Ex-4.67, N-(7-chloro-6-(1-(4-hydroxy-3-methyltetrahydrofuran-3-yl)piperidin-4-yl)isoquinolin-3-yl)-2-(tetrahydro-2H-pyran-4-yl)cyclopropane-1-carboxamide], 8.13e-05 µM.
As for `CC1(N2CCC(c3cc4cc(NC(=O)C5CC5C5CCCO5)ncc4cc3Cl)CC2)COCC1O` (single isomer, unassigned) [Ex-4.69, N-(7-chloro-6-(1-(4-hydroxy-3-methyltetrahydrofuran-3-yl)piperidin-4-yl)isoquinolin-3-yl)-2-(tetrahydrofuran-2-yl)cyclopropane-1-carboxamide], the figure is 8.13e-05 µM.
On to `CC1(N2CCC(c3cc4cc(NC(=O)C5CC5C5CCCCO5)ncc4cc3Cl)CC2)COCC1O` (single isomer, unassigned) [Ex-4.71, N-(7-chloro-6-(1-(4-hydroxy-3-methyltetrahydrofuran-3-yl)piperidin-4-yl)isoquinolin-3-yl)-2-(tetrahydro-2H-pyran-2-yl)cyclopropane-1-carboxamide], for which the IC50 was 8.13e-05 µM.
Take `CC1(N2CCC(c3cc4cc(NC(=O)C5CCC5c5ccccn5)ncc4cc3Cl)CC2)COCC1O` (single isomer, unassigned) [Ex-4.73, N-(7-chloro-6-(1-(4-hydroxy-3-methyltetrahydrofuran-3-yl)piperidin-4-yl)isoquinolin-3-yl)-2-(pyridin-2-yl)cyclobutane-1-carboxamide]: the IC50 is 0.661 µM.
Consider `CC1(N2CCC(c3cc4cc(NC(=O)C5CCC5c5ccccn5)ncc4cc3Cl)CC2)COCC1O` (single isomer, unassigned) [Ex-4.74, N-(7-chloro-6-(1-(4-hydroxy-3-methyltetrahydrofuran-3-yl)piperidin-4-yl)isoquinolin-3-yl)-2-(pyridin-2-yl)cyclobutane-1-carboxamide], for which the IC50 is 1.78 µM.
As for `CC1(N2CCC(c3cc4cc(NC(=O)C5CC(c6ccccn6)C5)ncc4cc3Cl)CC2)COCC1O` (single isomer, unassigned) [Ex-4.75, N-(7-chloro-6-(1-(4-hydroxy-3-methyltetrahydrofuran-3-yl)piperidin-4-yl)isoquinolin-3-yl)-3-(pyridin-2-yl)cyclobutane-1-carboxamide], the IC50 is 0.1 µM.
As to `CC1(N2CCC(c3cc4cc(NC(=O)C5CC(c6ccccn6)C5)ncc4cc3Cl)CC2)COCC1O` (single isomer, unassigned) [Ex-4.76, N-(7-chloro-6-(1-(4-hydroxy-3-methyltetrahydrofuran-3-yl)piperidin-4-yl)isoquinolin-3-yl)-3-(pyridin-2-yl)cyclobutane-1-carboxamide], the IC50 was 0.0417 µM.
Turning to `Cc1cc2cnc(NC(=O)C3CC3c3ccccn3)cc2cc1C1CCN(C2(C)COCC2O)CC1` (single isomer, unassigned) [Ex-4.77, N-(6-(1-(4-hydroxy-3-methyltetrahydrofuran-3-yl)piperidin-4-yl)-7-methylisoquinolin-3-yl)-2-(pyridin-2-yl)cyclopropane-1-carboxamide], the IC50 is 0.00562 µM.
Turning to `Cc1cc2cnc(NC(=O)C3CC3c3ccccn3)cc2cc1C1CCN(C2(C)COCC2O)CC1` (single isomer, unassigned) [Ex-4.78, N-(6-(1-(4-hydroxy-3-methyltetrahydrofuran-3-yl)piperidin-4-yl)-7-methylisoquinolin-3-yl)-2-(pyridin-2-yl)cyclopropane-1-carboxamide], the IC50 was 8.13e-05 µM.
Regarding `O=C(Nc1cc2cc(C3CCC(N4CC(F)C4)CC3)c(Cl)cc2cn1)C1CC1c1ccccn1` (single isomer, unassigned) [Ex-5.1, (1R,2R or 1S,2S)-N-(7-chloro-6-((cis or trans)-4-(3-fluoroazetidin-1-yl)cyclohexyl)isoquinolin-3-yl)-2-(pyridin-2-yl)cyclopropane-1-carboxamide], the IC50 was 0.0525 µM.
As to `O=C(Nc1cc2cc(C3CCC(N4CC(F)C4)CC3)c(Cl)cc2cn1)C1CC1c1ccccn1` (single isomer, unassigned) [Ex-5.2, (1R,2R or 1S,2S)-N-(7-chloro-6-((cis or trans)-4-(3-fluoroazetidin-1-yl)cyclohexyl)isoquinolin-3-yl)-2-(pyridin-2-yl)cyclopropane-1-carboxamide], the IC50 was 0.661 µM.
Take `O=C(Nc1cc2cc(C3CCC(N4CC(F)(F)C4)CC3)c(Cl)cc2cn1)C1CC1c1ccccn1` (single isomer, unassigned) [Ex-5.3, N-(7-chloro-6-(4-(3,3-difluoroazetidin-1-yl)cyclohexyl)isoquinolin-3-yl)-2-(pyridin-2-yl)cyclopropane-1-carboxamide]: the IC50 is 0.11 µM.
`O=C(Nc1cc2cc(C3CCC(N4CC(F)(F)C4)CC3)c(Cl)cc2cn1)C1CC1c1ccccn1` (single isomer, unassigned) [Ex-5.4, N-(7-chloro-6-(4-(3,3-difluoroazetidin-1-yl)cyclohexyl)isoquinolin-3-yl)-2-(pyridin-2-yl)cyclopropane-1-carboxamide]: the IC50 was 0.0479 µM.
Turning to `O=C(Nc1cc2cc(C3CCC(N4CC(F)(F)C4)CC3)c(Cl)cc2cn1)C1CC1c1ccccn1` (single isomer, unassigned) [Ex-5.5, N-(7-chloro-6-(4-(3,3-difluoroazetidin-1-yl)cyclohexyl)isoquinolin-3-yl)-2-(pyridin-2-yl)cyclopropane-1-carboxamide], the IC50 was 0.000275 µM.
For the molecule `O=C(Nc1cc2cc(C3CCC(N4CC(F)(F)C4)CC3)c(Cl)cc2cn1)C1CC1c1ccccn1` (single isomer, unassigned) [Ex-5.6, N-(7-chloro-6-(4-(3,3-difluoroazetidin-1-yl)cyclohexyl)isoquinolin-3-yl)-2-(pyridin-2-yl)cyclopropane-1-carboxamide], the IC50 was 0.912 µM.
Consider `Cn1cc(C2CC2C(=O)Nc2cc3cc(C4CCC(N5CC(F)C5)CC4)c(Cl)cc3cn2)cn1` (single isomer, unassigned) [Ex-5.7, N-(7-cchloro-6-(4-(3-fluoroazetidin-1-yl)cyclohexyl)isoquinolin-3-yl)-2-(1-methyl-1H-pyrazol-4-yl)cyclopropane-1-carboxamide], for which the IC50 is 0.00191 µM.
With `Cn1cc(C2CC2C(=O)Nc2cc3cc(C4CCC(N5CC(F)C5)CC4)c(Cl)cc3cn2)cn1` (single isomer, unassigned) [Ex-5.8, N-(7-cchloro-6-(4-(3-fluoroazetidin-1-yl)cyclohexyl)isoquinolin-3-yl)-2-(1-methyl-1H-pyrazol-4-yl)cyclopropane-1-carboxamide], the IC50 is 0.00871 µM.
In the case of `CC1(C)CC(C(=O)Nc2cc3cc(C4CCC(N5CCC(F)C5)CC4)c(Cl)cc3cn2)CCO1` (single isomer, unassigned) [Ex-5.9, N-(7-chloro-6-(4-(3-fluoropyrrolidin-1-yl)cyclohexyl)isoquinolin-3-yl)-2,2-dimethyltetrahydro-2H-pyran-4-carboxamid], the IC50 is 0.00178 µM.
With `CC1(C)CC(C(=O)Nc2cc3cc(C4CCC(N5CCC(F)C5)CC4)c(Cl)cc3cn2)CCO1` (single isomer, unassigned) [Ex-5.10, N-(7-chloro-6-(4-(3-fluoropyrrolidin-1-yl)cyclohexyl)isoquinolin-3-yl)-2,2-dimethyltetrahydro-2H-pyran-4-carboxamid], the IC50 was 0.00302 µM.
As for `CC1(C)CC(C(=O)Nc2cc3cc(C4CCC(N5CCC(F)C5)CC4)c(Cl)cc3cn2)CCO1` (single isomer, unassigned) [Ex-5.11, N-(7-chloro-6-(4-(3-fluoropyrrolidin-1-yl)cyclohexyl)isoquinolin-3-yl)-2,2-dimethyltetrahydro-2H-pyran-4-carboxamid], the IC50 was 0.0708 µM.
In the case of `CC1(C)CC(C(=O)Nc2cc3cc(C4CCC(N5CCC(F)C5)CC4)c(Cl)cc3cn2)CCO1` (single isomer, unassigned) [Ex-5.12, N-(7-chloro-6-(4-(3-fluoropyrrolidin-1-yl)cyclohexyl)isoquinolin-3-yl)-2,2-dimethyltetrahydro-2H-pyran-4-carboxamid], the IC50 is 0.00224 µM.
